Columns and labels:
MDA-MB-231 cells [1] = experiment: MTT antiproliferative assay, chemotherapeutic drug with APN inhibitor; assay type: cell-based, human; settings: for antiproliferative activity of chemotherapeutic drugs in combination with APN inhibitor: with PTX, EPB, CTX, CBP, 48 h
From the text: (§1) The combination of APN inhibitor and paclitaxel (PTX), has been employed for the treatment of human breast cancer. In the current study, molecules with good APN inhibitory potency (D12, D14 and D16) were selected and used in combination with several chemotherapeutic drugs, such as PTX, EPB, cyclophosphamide (CTX) and carboplatin (CBP) to investigate its inhibitory effect on breast cancer. Human triple negative breast cancer cell (TNBC) lines MDA-MB-231 and MDA-MB-468 were utilized in the in vitro studies. […] It was also observed that the synthesized molecules enhanced chemotherapeutic drug sensitivity in a dose dependent manner. Therefore, further analysis was performed to examine the synergistic effects of the derived APN inhibitors and chemotherapeutic drugs.
(§2) Then, 10μL of MTT solution (5 mg/mL) were added to each well. After incubation for 4h, the medium was carefully removed, and 100 μL DMSO was added to each well and fully dissolved in vibration for 10min. The optical density (OD) at 490 nm and 630 nm were measured with a microplate Spectrophotometer (M5, MD). IC50 values were obtained from at least 3 independent experiments.

MDA-MB-468 cells [2] = experiment: as above; assay type: cell-based, human; settings: for antiproliferative activity of chemotherapeutic drugs in combination with APN inhibitor: with PTX, EPB, CTX, CBP, 48 h
From the text: as §1, §2

[3] = tested on: CD13 (APN) expression in MDA-MB-231 cells; experiment: Flow cytometry of APN expression; assay type: cell-based, human; settings: 48 h
Description: (§3) The cells were seeded in 6-well plates (4 × 10^5 cells/well) and treated with tested compounds for 48 h. Then, cells were collected into 1.5 mL EP tubes, washed twice with PBS, and centrifuged at 2500rpm for 5minutes. Cells were resuspended with 100μlof PBS, then 2μL/tube of APN antibody was added, followed by incubation in dark for 30 minutes at 4°C. Then the cells were subjected to flow cytometry (FACSAria II, Becton-Dickinson) for the expression of APN.

[4] = tested on: CD13 (APN) expression in MDA-MB-468 cells; experiment: Flow cytometry of APN expression; assay type: cell-based, human; settings: 48 h
Description: as §3

MDA-MB-231 cells [5] = experiment: Apoptosis analysis (Annexin V-FITC/PI); assay type: cell-based, human; settings: 48 h
Description: (§4) Moreover, APN inhibitor-induced chemo-sensitization had been frequently reported for PTX ([17], [29]). Therefore, the combination of PTX-APN inhibitor was selected in the subsequent studies.
(§5) The cells were seeded in 6-well plates (3 × 10^5 cells/well) and treated with various compounds for 48 h. Then, cells were collected and washed twice with cold PBS. Annexin V-FITC staining solution was then added to the cells, and cells were incubated at 2-8°C for 15 minutes under dark conditions. Then, PI staining solution was added by gentle mix at 2-8°C. After 5 minutes of incubation under dark conditions, cells were tested with flow cytometry immediately.

MDA-MB-468 cells [6] = experiment: Apoptosis analysis (Annexin V-FITC/PI); assay type: cell-based, human; settings: 48 h
Description: as §4, §5

MDA-MB-231 cells [7] = experiment: Spheroid-formation assay; assay type: cell-based, human; settings: 1 nM PTX + 1 µM APN inhibitor, 7 days
Description: (§6) Cancer stem cells (CSCs) play an important role in the resistance of cancer cells to chemotherapeutic drugs. APN has been reported to be a therapeutic target in human cancer stem cells ([18]). Therefore, the CSC based test was performed in the present study. Colony-formation assay and spheroid-formation assay are two commonly used methods to assess the capacity of CSCs in vitro. In the spheroid-formation assay, MDA-MB-231 and MDA-MB-468 cells were dispersed into single cells, inoculated into low-adherence 6-well plates, and added with stem cell sphere medium. The stem cell spheres became visible after 5-6 days incubation. […] It is known that mRNA levels of the stem cell biomarkers OCT-4, SOX-2 and Nanog are associated with the characteristics of TNBC stem cells ([30]). Therefore, RT-PCR was performed on the TNBC cells to detect the mRNA levels of these markers.
(§7) MDA-MB-231 cells and MDA-MB-468 cells in logarithmic growth phase were collected, stem cell sphere culture medium without serum (containing 50X B-27Supplement,100X N-2 Supplement,20 μg/L epidermal growth factor (EGF), 20µg/L insulin-like growth factor (IGF-1), 10 μg/L fibroblast growth factor (b-FGF), 20X Knock Out SR, 2mM L-Glutamine, 5mg/L Heparin sodium, 1X PENICILLIN-STREPTOMYCIN and DMEM: F12 (1:1) medium was added for the re-suspension and fully blown into single-cell suspension. The cells were diluted to 5,000/2 mL, with stem cell sphere culture medium, and cultured in a 37°C, 5% CO2 cell incubator. The number of stem cell spheres were observed every day. […]

MDA-MB-468 cells [8] = experiment: Spheroid-formation assay; assay type: cell-based, human; settings: 1 nM PTX + 1 µM APN inhibitor, 7 days
Description: as §6, §7

MDA-MB-231 cells [9] = experiment: Colony-formation assay; assay type: cell-based, human; settings: 0.2 nM PTX + 1 µM APN inhibitor, 14 days
Description: as §6
(§8) 3000 cells were suspended in 2 mL medium, and seeded into the wells of six-well plate. After 12 hours of incubation, cells were treated with various compounds. Until each colony had more than 50 cells, this experiment terminated. Cells were washed twice with PBS and fixed with methanol for 10minutes. Then cells were stained with 1% crystal violet for 5minutes. Finally, colonies were washed and pictures were taken under a microscope (IX81, Olympus).

MDA-MB-468 cells [10] = experiment: Colony-formation assay; assay type: cell-based, human; settings: 0.2 nM PTX + 1 µM APN inhibitor, 14 days
Description: as §6, §8

[11] = tested on: luciferase-expressing MDA-MB-231 cells; experiment: In vivo anticancer study, xenograft model in female nude mice; settings: 20 mg/kg/d APN inhibitor + 10 mg/kg/3 days PTX; 3 weeks; n = 4
Description: To evaluate the in vivo anticancer potency of the combination of PTX-APN inhibitor, cancer xenograft model was established by inoculation of luciferase- expressing MDA-MB-231 cells to female nude mice. About 1×10^7 MDA-MB-231 cells were injected subcutaneously into the right fat pad of the fourth mammary gland of the mice. […] Significant tumor size variations were observed among different groups ( Figures 5A, B ). […] Moreover, no clear signs of toxicity in liver and spleen were detected in the sacrificed mice.
Female Nude mice aged 3 weeks were purchased from Hunan SJA Experimental Animal Company and raised under SPF aseptic conditions. About 1×10^7 luciferase overexpressing MDA-MB-231 cells were injected subcutaneously into the right fat pad of the fourth mammary gland of each mouse. […] PBS group animals received PBS via intraperitoneal injection, while 10 mg/kg/3 days of PTX was administered to animals in the PTX group. […] After 3 weeks of administration, each mouse was intraperitoneally injected with 200uL of fluorescein substrate (d-fluorescein potassium salt, 150mg/kg), and then anesthetized with isoflurane. In vivo fluorescence imaging system (IVIS Spectrum, PerkinElmer) and SlideBook4.0 software were utilized for the result analysis. After the imaging analysis, mice were sacrificed and dissected for the detection of tumor size and calculation of liver/spleen indexes. All animal experiments were approved by the Animal Care and Use Committee of Weifang Medical University.

[12] = molecular target: Aminopeptidase N (APN, CD13) (Homo sapiens, UniProt P15144); experiment: APN enzyme inhibitory assay, supernatant of K562-CD13 cells as enzyme source, L-leucine-p-nitro anilide substrate; settings: for inhibition at 30 µM: read-out: Inhibitory rate (%);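 on all read-outs here: substrate L-leucine-p-nitro anilide used at 1.6 mM, with enzyme from sonicated APN-overexpressing K562 cell lysate supernatant, run in 96-well plates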
Chain of Aminopeptidase N (APN, CD13) (P15144 whole entry): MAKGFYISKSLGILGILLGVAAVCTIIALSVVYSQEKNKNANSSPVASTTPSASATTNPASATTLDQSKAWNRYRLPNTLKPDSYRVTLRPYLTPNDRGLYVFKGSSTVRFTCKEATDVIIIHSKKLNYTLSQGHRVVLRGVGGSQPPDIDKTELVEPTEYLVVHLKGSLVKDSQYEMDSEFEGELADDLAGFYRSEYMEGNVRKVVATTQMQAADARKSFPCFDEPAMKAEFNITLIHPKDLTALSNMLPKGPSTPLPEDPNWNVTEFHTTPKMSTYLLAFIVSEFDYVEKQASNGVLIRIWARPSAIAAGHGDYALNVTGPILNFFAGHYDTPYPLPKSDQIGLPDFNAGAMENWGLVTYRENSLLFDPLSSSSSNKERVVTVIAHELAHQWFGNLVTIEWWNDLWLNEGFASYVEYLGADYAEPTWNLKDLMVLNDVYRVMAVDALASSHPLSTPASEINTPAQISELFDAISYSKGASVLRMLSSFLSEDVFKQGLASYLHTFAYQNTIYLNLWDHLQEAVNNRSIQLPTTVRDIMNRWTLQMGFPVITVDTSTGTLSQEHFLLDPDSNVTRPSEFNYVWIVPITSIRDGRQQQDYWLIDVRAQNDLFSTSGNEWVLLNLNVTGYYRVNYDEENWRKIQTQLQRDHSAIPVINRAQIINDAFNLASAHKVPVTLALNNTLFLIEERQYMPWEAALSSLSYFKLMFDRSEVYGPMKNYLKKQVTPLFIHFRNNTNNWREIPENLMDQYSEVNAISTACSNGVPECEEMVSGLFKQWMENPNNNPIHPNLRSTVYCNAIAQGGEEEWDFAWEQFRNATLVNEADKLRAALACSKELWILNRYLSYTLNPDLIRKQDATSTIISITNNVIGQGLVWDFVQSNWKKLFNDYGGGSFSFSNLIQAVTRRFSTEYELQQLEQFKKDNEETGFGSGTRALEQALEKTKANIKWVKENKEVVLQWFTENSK
Description: In the enzyme inhibitory assay, K562-CD13 monoclonal cells were used as APN enzyme source as described in our previous work ([27]).
K562 cells with overexpression of APN were added into PBS for ultrasonic crushing, centrifuged for 10 minutes, and supernatant was taken as enzyme source and added into 96-well plate. Different concentrations of compounds were added subsequently, and 1.6 mM L-leucine-p-nitro anilide was used as substrate. After 30 minutes of reaction, the APN enzyme activity was measured at 405 nm absorbance. The inhibition rate of APN activity was analyzed by the formula (Od control OD tested)/Od control 100%.

MDA-MB-231 cells [13] = experiment: Cellular reactive oxygen species detection (DCFH-DA, flow cytometry); assay type: cell-based, human; settings: PTX alone, 48 h
MDA-MB-468 cells [14] = experiment: as above; assay type: cell-based, human; settings: PTX alone, 48 h

Row | Structure (SMILES) | antiproliferative activity of chemotherapeutic drugs in combination with APN inhibitor (MDA-MB-231 cells [1]) | antiproliferative activity of chemotherapeutic drugs in combination with APN inhibitor (MDA-MB-468 cells [2]) | APN expression, combination with PTX compared with paclitaxel alone [3] | APN expression, combination with PTX compared with paclitaxel alone [4] | apoptotic rate in combination with PTX, compared with Bestatin (MDA-MB-231 cells [5]) | apoptotic rate in combination with PTX, compared with Bestatin (MDA-MB-468 cells [6]) | number of tumor spheres formed, compared with control and PTX alone (MDA-MB-231 cells [7]) | number of tumor spheres formed, compared with control and PTX alone (MDA-MB-468 cells [8]) | colony formation, compared with control and single PTX (MDA-MB-231 cells [9]) | colony formation, compared with control and single PTX (MDA-MB-468 cells [10]) | anticancer effect of PTX (tumor weight) compared with single PTX administration group [11] | inhibitory rate (tumor), in combination with PTX [11] | IC50 [12] | inhibition at 30 µM [12] | inhibitory potency among the tested chemotherapeutic drugs (MDA-MB-231 cells [1]; chemotherapeutic drug) | inhibitory potency among the tested chemotherapeutic drugs (MDA-MB-468 cells [2]; chemotherapeutic drug) | APN expression relative to untreated control ([3]; PTX alone) | APN expression relative to untreated control ([4]; PTX alone) | ROS levels compared to control group (MDA-MB-231 cells [13]) | ROS levels compared to control group (MDA-MB-468 cells [14])
1 | O=C(Cn1c2c(c3ccccc31)CCN(C(=O)c1cccc(F)c1)C2)NO [Compound D12, 2-(2-(3-fluorobenzoyl)-1,2,3,4-tetrahydro-9H-pyrido[3,4-b]indol-9-yl)-N-hydroxyacetamide] | synergistically improved the antiproliferative activity of chemotherapeutic drugs | synergistically improved the antiproliferative activity of chemotherapeutic drugs | decreased APN expression | decreased APN expression | higher apoptotic rate | higher apoptotic rate | significant decrease in the number of tumor spheres | significant decrease in the number of tumor spheres | decreased the tumor sphere and colony formation abilities | decreased the tumor sphere and colony formation abilities | improved the anticancer effect of PTX | 54.02% | 8.92 ± 0.38 µM | 74.9 ± 4.35% |  |  |  |  |  | 
2 | Cc1ccccc1C(=O)N1CCc2c(n(CC(=O)NO)c3ccccc23)C1 [Compound D16, N-hydroxy-2-(2-(2-methylbenzoyl)-1,2,3,4-tetrahydro-9H-pyrido[3,4-b]indol-9-yl)acetamide] | synergistically improved the antiproliferative activity of chemotherapeutic drugs | synergistically improved the antiproliferative activity of chemotherapeutic drugs | decreased APN expression | decreased APN expression | higher apoptotic rate | higher apoptotic rate | significant decrease in the number of tumor spheres | significant decrease in the number of tumor spheres | decreased the tumor sphere and colony formation abilities | decreased the tumor sphere and colony formation abilities | improved the anticancer effect of PTX | 14.15% | 7.9 ± 0.27 µM | 74.5 ± 4.66% |  |  |  |  |  | 
3 | CC(=O)O[C@H]1C(=O)[C@@]2(C)[C@H]([C@H](OC(=O)c3ccccc3)[C@]3(O)C[C@H](OC(=O)[C@H](O)[C@@H](NC(=O)c4ccccc4)c4ccccc4)C(C)=C1C3(C)C)[C@]1(OC(C)=O)CO[C@@H]1C[C@@H]2O [PTX, Paclitaxel, reference compound] |  |  |  |  |  |  |  |  |  |  |  |  |  |  | highest inhibitory potency | highest inhibitory potency | up-regulated APN expression | up-regulated APN expression | increased ROS levels | increased ROS levels

Reference: article PMC9168271, “Discovery of Novel Tetrahydro-β-carboline Containing Aminopeptidase N Inhibitors as Cancer Chemosensitizers” (Frontiers in Oncology, 2022)
